In patent US12729377B2, “RNAi agents and compositions for inhibiting expression of angiopoietin-like 3 (ANGPTL3), and methods of use” (Arrowhead Pharmaceuticals, Inc., priority 2017, dated 2026):
In the oligonucleotide strings, read from the 5' end, every base follows the letter of its sugar. An asterisk marks phosphorothioate; unmarked linkages are phosphodiester. Other units and linkages are bracketed, terminal groups are in braces. A string of capitals states the bases alone. {NAG37} = tridentate N-acetyl-galactosamine targeting ligand, structure (NAG37)s; [invAb] = inverted abasic unit; m = 2'-O-methyl; f = 2'-fluoro

Tests used:
[1] = system: ANGPTL3 protein; assay: Example 13: serum ANGPTL3 protein in HFCS diet-fed Rhesus monkeys; assay type: in vivo; conditions: for Avg ANGPTL3 Protein Normalized to Pre-Treatment (Fasted): 4.0 mg/kg sc on day 1 and day 29
Procedure: (§1) ANGPTL3 RNAi agent AD05488 was further evaluated in high-fructose corn syrup (HFCS) diet-fed Rhesus monkeys. Rhesus monkeys were placed on an HFCS diet 37 days prior to dosing. These animals were known to develop increased plasma triglycerides greater than 180 mg/dL on the HFCS diet. On day 1 and again on day 29, four (4) Rhesus monkeys were administered a subcutaneous injection containing 4.0 mg/kg of ANGPTL3 RNAi agent AD05488 formulated in saline (n=4). Two additional Rhesus monkeys were administered normal saline control.
(§2) Fasted blood samples were drawn for analysis, and serum samples were analyzed on days-8 (predose), 8, 15, 21, 29, and 36. ANGPTL3 expression levels, triglycerides, total cholesterol, high-density lipoprotein (HDL), and low-density lipoprotein (LDL) in serum were measured on a Cobas® Integra 400 (Roche Diagnostics), according to the manufacturer's recommendations.
(§3) The ANGPTL3 protein levels, triglyceride levels, total cholesterol levels, HDL levels, and LDL levels for each animal were normalized. For normalization, the level of ANGPTL3 protein, triglyceride, HDL, and total cholesterol, respectively, for each animal at a time point, was divided by the pre-treatment level of expression in that animal (in this case at day −8) to determine the ratio of expression “normalized to pre-treatment.”

[2] = system: ANGPTL3 gene; assay: Example 12: serum HDL in LDLR knockout mice; assay type: in vivo, LDLR KO mice; conditions: 3.0 mg/kg sc day 1
Excerpt: To evaluate the effect of RNAi agent administration in a disease model, mice having a genetic mutation for the LDL receptor (referred to herein as LDLR KO mice) were commercially obtained (The Jackson Laboratory). The LDLR KO mice are homozygous for the Ldlr^tm1Her mutation, and have elevated serum cholesterol levels, particularly when placed on a high fat diet. For three weeks prior to the onset of the study, thirty-nine (39) LDLR KO mice were placed on a high fat diet (Teklad Custom Diets TD.88137). An additional eight (8) LDLR KO mice were placed on a normal chow diet over the same three-week period. Pre-dose serum samples were taken on day −15 and day −1 after a four hour fast. At day 1, each mouse was given a single subcutaneous administration of 200 μl/30 g animal body weight containing the respective mg/kg dose of an ANGPTL3 RNAi agent in D5W (dextrose in 5% water), control (D5W) with no RNAi agent, or a control RNAi agent that included a nucleotide sequence designed to target the Hepatitis B Virus (HBV) genome. A second injection of the same formulation was administered to the animals on day 29. The dosing regimen for the study is recited in the following Table 60:
Each mouse remained on its respective diet through the duration of study. The RNAi agent tested (AD05488) included a modified sequence and an N-acetyl-galactosamine-containing targeting ligand conjugated to the 5′ terminal end of the sense strand. (See Tables 3, […] modified sequences and targeting ligand structures). The injections were performed between the skin and muscle (i.e. subcutaneous injections) into the loose skin over the neck and shoulder area. Serum was collected on days 8, 15, 22, 29 (pre-second dose), 36, 43, 50, and 57. LDLR KO mice were fasted for four hours prior to each collection. On day 15, four (4) LDLR KO mice from Groups 1, 2, and 3 (i.e., the groups being administered the high fat “Western” diet) were sacrificed after serum collection, and on day 29, an additional four (4) LDLR KO mice from Groups 1, 2, and 3 were sacrificed after serum collection, for the purpose of performing mRNA assessments.
ANGPTL3 protein levels in serum were measured by ELISA assay (R&D Systems), according to the manufacturer's recommendations. Triglycerides, total cholesterol, high-density lipoprotein (HDL), and low-density lipoprotein (LDL) in serum were measured on a Cobas® Integra 400 (Roche Diagnostics), according to the manufacturer's recommendations.
The ANGPTL3 protein levels, triglyceride levels, total cholesterol levels, HDL levels, and LDL levels for each animal were normalized. For normalization, respective levels of ANGPTL3 protein, TG, total cholesterol, HDL, or LDL for each animal at a time point was divided by the average pre-treatment level of expression in that animal (in this case the average of day −15 and day −1) to determine the ratio of expression “normalized to pre-treatment.”
Expression at a specific time point was then normalized to the D5W control group that was administered the same diet (i.e., either the high fat “Western” diet or the normal chow-fed diet) by dividing the “normalized to pre-treatment” ratio for an individual animal by the mean “normalized to pretreatment” ratio of all mice in the D5W control group on the respective same diet, resulting in expression for each time point normalized to that in the control group.

[3] = system: ANGPTL3 gene; assay: Example 13: serum triglycerides in HFCS diet-fed Rhesus monkeys; assay type: in vivo; conditions: for Avg TG (Triglycerides) Normalized to Pre-Treatment (Fasted): 4.0 mg/kg sc on day 1 and day 29
Procedure: as §1, §2, §3

“AD05488: RNAi agent duplex: antisense AM07235-AS, sense AM07234-SS (antisense mU*fA*mC*fUmGfAmUfCmAfAmAfUmAfUmGfUmUfGmAfG*mC; sense {NAG37}*[invAb]*mGmCmUmCmAmAmCmAfUfAfUmUmUmGmAmUmCmAmGmUmA*[invAb])” was tested, and the “Avg ANGPTL3 Protein Normalized to Pre-Treatment (Fasted)” value (“Avg ANGPTL3 Protein Normalized” for short) ([1]; Day 8) was 0.229, the “Avg ANGPTL3 Protein Normalized” value ([1]; Day 15) was 0.154 and the “Avg ANGPTL3 Protein Normalized” value ([1]; Day 21) was 0.116. The “Avg ANGPTL3 Protein Normalized” value ([1]; Day 29) was 0.114, the “Avg ANGPTL3 Protein Normalized” value ([1]; Day 36) was 0.064 and the “reduction in ANGPTL3 protein compared to pre-treatment” value ([1]; each of the measured time points, 4.0 mg/kg on days 1 and 29, HFCS diet-fed Rhesus monkeys) was “significant reduction”. The “Avg HDL Normalized to Pre-Treatment and Control (Diet Matched)” value (“Avg HDL Normalized” for short) ([2]; High Fat Diet, Day 8) was 0.693, the “Avg HDL Normalized” value ([2]; High Fat Diet, Day 15) was 0.735 and the “Avg HDL Normalized” value ([2]; High Fat Diet, Day 22) was 0.716. The “Avg HDL Normalized” value ([2]; High Fat Diet, Day 29 (pre-second dose)) was 0.711, the “Avg HDL Normalized” value ([2]; Normal Diet, Day 8) was 0.645 and the “Avg HDL Normalized” value ([2]; Normal Diet, Day 15) was 0.745. For the same substance, the “Avg HDL Normalized” value ([2]; Normal Diet, Day 22) was 0.766, the “Avg HDL Normalized” value ([2]; Normal Diet, Day 29 (pre-second dose)) was 0.737 and the “reductions in triglyceride levels” value ([3]; 4.0 mg/kg on days 1 and 29, HFCS diet-fed Rhesus monkeys) was “reductions”. For the same substance, the “Avg TG (Triglycerides) Normalized to Pre-Treatment (Fasted)” value (from here on “Avg TG (Triglycerides) Normalized”) ([3]; Day 8) was 0.351, the “Avg TG (Triglycerides) Normalized” value ([3]; Day 15) was 0.244 and the “Avg TG (Triglycerides) Normalized” value ([3]; Day 21) was 0.233. The “Avg TG (Triglycerides) Normalized” value ([3]; Day 29) was 0.302 and the “Avg TG (Triglycerides) Normalized” value ([3]; Day 36) was 0.177.
